Usually residual activity stands for the signal under treatment as a percentage of the control signal. Usually half-life stands for the time in which the quantity being followed falls by half.

The source made the active and inactive calls. The rule behind the calls is not given here.

Data set [1] has as its target D-alanyl-D-alanine carboxypeptidase (Actinomadura sp. R39) (UniProt P39045). The experiment in a line: Residual activity of Actinomadura R39 DD-peptidase at 100 uM after 16 hrs.
Data set [2] concerns the target T1, Penicillin-binding protein 2x (Streptococcus pneumoniae serotype 4 (strain ATCC BAA-334 / TIGR4)) (UniProt P14677).
T1 sequence (whole entry): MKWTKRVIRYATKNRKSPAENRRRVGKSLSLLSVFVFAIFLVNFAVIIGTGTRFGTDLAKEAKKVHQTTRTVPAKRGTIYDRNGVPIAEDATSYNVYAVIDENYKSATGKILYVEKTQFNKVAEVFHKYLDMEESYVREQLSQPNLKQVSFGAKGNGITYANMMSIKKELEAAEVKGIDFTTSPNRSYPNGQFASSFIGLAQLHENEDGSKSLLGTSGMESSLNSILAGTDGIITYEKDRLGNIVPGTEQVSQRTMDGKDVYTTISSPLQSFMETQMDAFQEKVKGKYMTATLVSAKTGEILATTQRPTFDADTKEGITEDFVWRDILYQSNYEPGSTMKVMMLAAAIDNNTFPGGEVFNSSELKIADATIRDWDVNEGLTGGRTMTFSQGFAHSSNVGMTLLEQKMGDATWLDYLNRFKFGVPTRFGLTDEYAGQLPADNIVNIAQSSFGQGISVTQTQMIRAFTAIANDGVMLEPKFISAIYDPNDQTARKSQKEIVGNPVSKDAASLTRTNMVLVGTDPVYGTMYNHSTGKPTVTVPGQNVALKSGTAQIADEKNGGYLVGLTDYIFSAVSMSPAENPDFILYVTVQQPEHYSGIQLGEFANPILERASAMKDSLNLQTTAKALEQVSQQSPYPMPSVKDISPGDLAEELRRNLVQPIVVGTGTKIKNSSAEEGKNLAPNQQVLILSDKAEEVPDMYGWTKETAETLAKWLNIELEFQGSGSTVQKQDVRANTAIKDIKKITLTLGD
The experiment in a line: Residual activity of Streptococcus pneumoniae 5204 PBP2x at 100 uM after 16 hrs.

Data set [3] in a line: Inhibition of beta-lactamase TEM1 at 100 uM.
The target in data set [4] is T2, MecA (Staphylococcus aureus) (UniProt Q7DHH4).
T2 sequence (whole entry): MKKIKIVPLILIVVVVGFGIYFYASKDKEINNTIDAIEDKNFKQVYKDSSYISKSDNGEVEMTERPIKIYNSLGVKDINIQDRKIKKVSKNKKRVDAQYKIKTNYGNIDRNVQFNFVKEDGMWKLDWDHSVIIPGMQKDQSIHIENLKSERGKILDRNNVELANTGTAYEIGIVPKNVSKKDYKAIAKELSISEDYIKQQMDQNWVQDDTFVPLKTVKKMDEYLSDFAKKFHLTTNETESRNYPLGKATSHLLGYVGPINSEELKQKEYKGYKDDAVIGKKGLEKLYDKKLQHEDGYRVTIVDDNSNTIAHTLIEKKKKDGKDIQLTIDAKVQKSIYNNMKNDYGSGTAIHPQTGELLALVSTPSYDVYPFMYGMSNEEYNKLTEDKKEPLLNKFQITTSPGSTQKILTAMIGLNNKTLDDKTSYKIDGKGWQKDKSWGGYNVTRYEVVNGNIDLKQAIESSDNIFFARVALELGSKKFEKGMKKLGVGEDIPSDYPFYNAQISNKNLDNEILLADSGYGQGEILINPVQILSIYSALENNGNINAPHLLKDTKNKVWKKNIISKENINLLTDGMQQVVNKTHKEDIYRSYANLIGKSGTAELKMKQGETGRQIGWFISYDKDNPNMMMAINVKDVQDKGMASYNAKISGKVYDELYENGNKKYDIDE
The experiment in a line: Inhibition of methicillin-resistant Staphylococcus aureus ATCC […] PBP2a assessed as residual activity at 100 uM after 16 hrs. The conditions noted are these: values are per cent of control.

Data set [5] has as its target Chymotrypsin-like elastase family member 1 (Sus scrofa) (UniProt P00772). The experiment in a line: Inhibition of pig pancreatic elastase assessed as formation of p-nitroaniline at 100 uM.
A short description of data set [6]: Chemical stability assessed as hydrolysis half life. The class given is physicochemical.
A further data set has as its system Enterococcus faecium. The experiment in a line: Residual activity of Enterococcus faecium PBP5fm at 100 uM after 16 hrs.
The target of data set [7] is Chymotrypsin-like elastase family member 1 (Sus scrofa) (UniProt P00772). The experiment in a line: Reversible inhibition of pig pancreatic elastase at 1 to 100 uM preincubated for 60 mins before addition of N-succinyl-L-alanyl-Lalanyl- L-alanyl-p-nitroanilide by incubation/dilution method.
Sequence of Chymotrypsin-like elastase family member 1 (Sus scrofa) (P00772 whole entry): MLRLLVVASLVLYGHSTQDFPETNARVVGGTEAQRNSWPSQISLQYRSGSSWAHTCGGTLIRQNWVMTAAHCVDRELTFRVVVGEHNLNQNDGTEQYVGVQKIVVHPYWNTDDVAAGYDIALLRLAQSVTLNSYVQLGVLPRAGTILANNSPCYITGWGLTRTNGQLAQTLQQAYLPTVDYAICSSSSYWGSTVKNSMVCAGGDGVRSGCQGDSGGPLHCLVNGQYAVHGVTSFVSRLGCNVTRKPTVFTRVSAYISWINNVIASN
Data set [8] has the same target. The experiment in a line: Reversible inhibition of pig pancreatic elastase at 1 to 100 uM preincubated for 40 mins before addition of N-succinyl-L-alanyl-Lalanyl- L-alanyl-p-nitroanilide by incubation/dilution method.
Data set [9] shares this target. The experiment in a line: Reversible inhibition of pig pancreatic elastase at 1 to 100 uM preincubated for 20 mins before addition of N-succinyl-L-alanyl-Lalanyl- L-alanyl-p-nitroanilide by incubation/dilution method.
For data set [10] the target is unchanged. The experiment in a line: Inhibition of pig pancreatic elastase assessed as formation of p-nitroaniline at 1 uM.

`CC(=O)O[C@@H]1[C@@H]2C(=O)N1C(=O)CC/C=C/CCC(=O)O[C@@H]2C`: the residual activity in data set [1] was determined as 96%; in data set [2], 116%; in [4] it was 86%; in the data set with Enterococcus faecium, 104%. Besides, the inhibition entry in data set [3] and in [5] was “inactive” throughout. In data set [6], the half-life is 6 h.

For the molecule `C=CCCC(=O)O[C@H](C)[C@H]1C(=O)N(C(=O)CCC=C)[C@@H]1OC(C)=O`, the residual activity in [1] is 14%; in data set [2], 93%; in [4] it was 66%; in the data set on Enterococcus faecium, 84%. In addition, in data set [3], the inhibition result is “inactive”. The inhibition entry in [7], in [8], in data set [9] and in data set [10] was “Active” throughout. In data set [6], the half-life is 16 h.

With `CC(=O)O[C@@H]1[C@@H]2C(=O)N1C(=O)CCCCCCC(=O)O[C@@H]2C`, the residual activity was determined as 113% in data set [1], 99% in data set [2], 94% in [4] and 113% in the data set on Enterococcus faecium. In addition, the inhibition result in [3] and in data set [5] was “inactive” each time. In addition, the half-life in [6] was 4 h.

On to `CC1(C)S[C@@H]2[C@H](NC(=O)Cc3ccccc3)C(=O)N2[C@H]1C(=O)O`, for which the residual activity in data set [2] is < 5%; in data set [4] it was 13%; with Enterococcus faecium, 10%.
